From ChEMBL document CHEMBL1201862, “PubChem BioAssay data set” (2004)
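Each compound was tested at five concentrations against cells in 96-well plates for 48 hours. The concentration for 50% growth inhibition is given as GI50.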 Calls of active or inactive are those of the source. Cut-off read from the data, not from the text of the source: active = GI50 up to about 1.1 µM and inactive = higher.

Columns and labels:
Assay in all cases: NCI-60 cell line screen, 48 h
Malme-3M = system: Malme-3M
MOLT-4 = system: MOLT-4
EKVX = system: EKVX
T47D = system: T47D
OVCAR-4 = system: OVCAR-4
HOP-92 = system: HOP-92
MDA-N = system: MDA-N
OVCAR-3 = system: OVCAR-3
UO-31 = system: UO-31
NCI-H522 = system: NCI-H522
UACC-257 = system: UACC-257
NCI-H23 = system: NCI-H23
SF-539 = system: SF-539
NCI-H226 = system: NCI-H226
A549 = system: A549
SNB-19 = system: SNB-19
OVCAR-5 = system: OVCAR-5
SF-268 = system: SF-268
OVCAR-8 = system: OVCAR-8
PC-3 = system: PC-3

SMILES	GI50 (Malme-3M)	GI50 (MOLT-4)	GI50 (EKVX)	GI50 (T47D)	GI50 (OVCAR-4)	GI50 (HOP-92)	GI50 (MDA-N)	GI50 (OVCAR-3)	GI50 (UO-31)	GI50 (NCI-H522)	GI50 (UACC-257)	GI50 (NCI-H23)	GI50 (SF-539)	GI50 (NCI-H226)	GI50 (A549)	GI50 (SNB-19)	GI50 (OVCAR-5)	GI50 (SF-268)	GI50 (OVCAR-8)	GI50 (PC-3)
CC(NC1=NCCO1)c1ccco1 (stereo not given)	> 100 µM (inactive)	> 100 µM (inactive)	> 100 µM (inactive)	> 100 µM (inactive)	> 100 µM (inactive)	> 100 µM (inactive)	95.9 µM (inactive)	> 100 µM (inactive)	> 100 µM (inactive)	> 100 µM (inactive)	> 100 µM (inactive)	> 100 µM (inactive)	> 100 µM (inactive)	> 100 µM (inactive)	> 100 µM (inactive)	> 100 µM (inactive)	> 100 µM (inactive)	> 100 µM (inactive)	> 100 µM (inactive)	> 100 µM (inactive)
O=C1N(C2CCCCC2)C(=O)N1C1CCCCC1	1.99 µM (inactive)	0.0132 µM (active)	8.61 µM (inactive)	0.56 µM (active)	1.68 µM (inactive)	0.149 µM (active)	3.97 µM (inactive)	1.87 µM (inactive)	< 0.0105 µM (active)	0.328 µM (active)	0.679 µM (active)	0.83 µM (active)	1.22 µM (inactive)	0.416 µM (active)	0.245 µM (active)	1.46 µM (inactive)	1.83 µM (inactive)	0.75 µM (active)	0.0929 µM (active)	0.233 µM (active)
CCCCCCOc1ccc(C(=O)N(C)O)cc1	14.1 µM (inactive)	4.97 µM (inactive)	20.3 µM (inactive)	23.6 µM (inactive)	31.4 µM (inactive)	21.1 µM (inactive)	27.6 µM (inactive)	9.68 µM (inactive)	9.48 µM (inactive)	9.86 µM (inactive)	36.6 µM (inactive)	11.9 µM (inactive)	15 µM (inactive)	13.5 µM (inactive)	12.1 µM (inactive)	24.2 µM (inactive)	67.3 µM (inactive)	11.5 µM (inactive)	11.7 µM (inactive)	12.1 µM (inactive)
CC(=O)NNc1nc(C)c(C(/C=C/c2ccc3c(c2)OCO3)=N/Nc2ccccc2)s1	> 100 µM (inactive)	> 100 µM (inactive)	> 100 µM (inactive)	> 100 µM (inactive)	> 100 µM (inactive)	> 100 µM (inactive)	> 100 µM (inactive)	> 100 µM (inactive)	> 100 µM (inactive)	> 100 µM (inactive)	> 100 µM (inactive)	> 100 µM (inactive)	> 100 µM (inactive)	> 100 µM (inactive)	> 100 µM (inactive)	> 100 µM (inactive)	> 100 µM (inactive)	> 100 µM (inactive)	> 100 µM (inactive)	> 100 µM (inactive)
CCOC(=O)Cc1csc(NC(NC(=O)OCC)(C(=O)OCC)C(F)(F)F)n1 (stereo not given)	> 100 µM (inactive)	> 100 µM (inactive)	> 100 µM (inactive)	> 100 µM (inactive)	> 100 µM (inactive)	56.6 µM (inactive)	> 100 µM (inactive)	> 100 µM (inactive)	> 100 µM (inactive)	16.9 µM (inactive)	> 100 µM (inactive)	> 100 µM (inactive)	> 100 µM (inactive)	> 100 µM (inactive)	> 100 µM (inactive)	> 100 µM (inactive)	> 100 µM (inactive)	> 100 µM (inactive)	> 100 µM (inactive)	> 100 µM (inactive)
CN(CC(N)=O)C(=O)N(CCCl)N=O [SARCNU]	> 100 µM (inactive)	> 100 µM (inactive)	> 100 µM (inactive)	> 100 µM (inactive)	> 100 µM (inactive)	> 77.6 µM (inactive)	> 100 µM (inactive)	> 100 µM (inactive)	> 100 µM (inactive)	> 100 µM (inactive)	> 100 µM (inactive)	> 100 µM (inactive)	38.3 µM (inactive)	67.9 µM (inactive)	> 100 µM (inactive)	> 83.9 µM (inactive)	> 100 µM (inactive)	27.2 µM (inactive)	> 100 µM (inactive)	> 100 µM (inactive)
C[C@H](NC(=O)C(Cc1ccccc1)(Cc1ccc(O)cn1)NC(=O)c1ccccc1)c1ccccc1 (stereo not given in full)	17.5 µM (inactive)	16.9 µM (inactive)	14.7 µM (inactive)	18.5 µM (inactive)	15.1 µM (inactive)	21.3 µM (inactive)	15.5 µM (inactive)	14.7 µM (inactive)	14.8 µM (inactive)	15.5 µM (inactive)	17.7 µM (inactive)	22 µM (inactive)	19.2 µM (inactive)	19.7 µM (inactive)	14.3 µM (inactive)	18.8 µM (inactive)	21.9 µM (inactive)	18.2 µM (inactive)	20.4 µM (inactive)	14.2 µM (inactive)
COC(=O)C1=C(OC(=O)/C=C/c2ccc(Cl)cc2)C(C(=O)OC)[C@]2(O)[C@@H](C(=O)OC)[C@H]1C[C@@H](c1ccccc1)[C@@H]2C(=O)OC (stereo not given in full)	4.94 µM (inactive)	3.76 µM (inactive)	3.85 µM (inactive)	5.87 µM (inactive)	5.19 µM (inactive)	2.58 µM (inactive)	3.58 µM (inactive)	7.5 µM (inactive)	7.08 µM (inactive)	2.34 µM (inactive)	26.2 µM (inactive)	3.44 µM (inactive)	4.68 µM (inactive)	4.12 µM (inactive)	3.7 µM (inactive)	6.65 µM (inactive)	17.7 µM (inactive)	4.66 µM (inactive)	3.95 µM (inactive)	5.65 µM (inactive)
C=C1C(=O)OC2C1C(OC(=O)/C(C)=C/C)CC(O)(CCl)C1C(OC(C)=O)C=C(C)C21O (stereo not given)	3.34 µM (inactive)	3.69 µM (inactive)	9.75 µM (inactive)	18 µM (inactive)	17.2 µM (inactive)	13.1 µM (inactive)	16.8 µM (inactive)	8.93 µM (inactive)	18.6 µM (inactive)	1.99 µM (inactive)	16.5 µM (inactive)	16.6 µM (inactive)	18.2 µM (inactive)	30.3 µM (inactive)	28.2 µM (inactive)	> 42.9 µM (inactive)	17.3 µM (inactive)	16 µM (inactive)	8.45 µM (inactive)	16.1 µM (inactive)
CCN1CCC(O)(/C=C/c2ccc(C(C)C)cc2)C(C(=O)/C=C/c2ccc(C(C)C)cc2)C1 (stereo not given)	5.02 µM (inactive)	1.59 µM (inactive)	2.22 µM (inactive)	2.35 µM (inactive)	3.04 µM (inactive)	1.85 µM (inactive)	2.37 µM (inactive)	2.84 µM (inactive)	2.96 µM (inactive)	2.1 µM (inactive)	6.67 µM (inactive)	2.38 µM (inactive)	2.29 µM (inactive)	2.82 µM (inactive)	3.37 µM (inactive)	3.8 µM (inactive)	4.34 µM (inactive)	1.96 µM (inactive)	1.96 µM (inactive)	3.52 µM (inactive)
CC12NC(=C(C#N)C#N)C(C#N)=C3NC(N)=C(C#N)C(=C31)Oc1ccccc12 (stereo not given)	20.6 µM (inactive)	15.2 µM (inactive)	> 66.5 µM (inactive)	> 79.1 µM (inactive)	62.1 µM (inactive)	> 21.5 µM (inactive)	14.6 µM (inactive)	4.2 µM (inactive)	> 100 µM (inactive)	56.2 µM (inactive)	> 100 µM (inactive)	6.85 µM (inactive)	4.32 µM (inactive)	43.6 µM (inactive)	17 µM (inactive)	> 40.7 µM (inactive)	47.8 µM (inactive)	10.4 µM (inactive)	10.9 µM (inactive)	30.1 µM (inactive)
